The results in this text go back to patent US11919887B2, “Substituted tetrahydrofurans as modulators of sodium channels” (Vertex Pharmaceuticals Incorporated, priority 2019, dated 2024).

The structures appear in SMILES notation. A value given as a limit tells only on which side of the number the result lay.

human Nav 1.8, sequence (Q9Y5Y9 whole entry, looked up, the tested form may be a part): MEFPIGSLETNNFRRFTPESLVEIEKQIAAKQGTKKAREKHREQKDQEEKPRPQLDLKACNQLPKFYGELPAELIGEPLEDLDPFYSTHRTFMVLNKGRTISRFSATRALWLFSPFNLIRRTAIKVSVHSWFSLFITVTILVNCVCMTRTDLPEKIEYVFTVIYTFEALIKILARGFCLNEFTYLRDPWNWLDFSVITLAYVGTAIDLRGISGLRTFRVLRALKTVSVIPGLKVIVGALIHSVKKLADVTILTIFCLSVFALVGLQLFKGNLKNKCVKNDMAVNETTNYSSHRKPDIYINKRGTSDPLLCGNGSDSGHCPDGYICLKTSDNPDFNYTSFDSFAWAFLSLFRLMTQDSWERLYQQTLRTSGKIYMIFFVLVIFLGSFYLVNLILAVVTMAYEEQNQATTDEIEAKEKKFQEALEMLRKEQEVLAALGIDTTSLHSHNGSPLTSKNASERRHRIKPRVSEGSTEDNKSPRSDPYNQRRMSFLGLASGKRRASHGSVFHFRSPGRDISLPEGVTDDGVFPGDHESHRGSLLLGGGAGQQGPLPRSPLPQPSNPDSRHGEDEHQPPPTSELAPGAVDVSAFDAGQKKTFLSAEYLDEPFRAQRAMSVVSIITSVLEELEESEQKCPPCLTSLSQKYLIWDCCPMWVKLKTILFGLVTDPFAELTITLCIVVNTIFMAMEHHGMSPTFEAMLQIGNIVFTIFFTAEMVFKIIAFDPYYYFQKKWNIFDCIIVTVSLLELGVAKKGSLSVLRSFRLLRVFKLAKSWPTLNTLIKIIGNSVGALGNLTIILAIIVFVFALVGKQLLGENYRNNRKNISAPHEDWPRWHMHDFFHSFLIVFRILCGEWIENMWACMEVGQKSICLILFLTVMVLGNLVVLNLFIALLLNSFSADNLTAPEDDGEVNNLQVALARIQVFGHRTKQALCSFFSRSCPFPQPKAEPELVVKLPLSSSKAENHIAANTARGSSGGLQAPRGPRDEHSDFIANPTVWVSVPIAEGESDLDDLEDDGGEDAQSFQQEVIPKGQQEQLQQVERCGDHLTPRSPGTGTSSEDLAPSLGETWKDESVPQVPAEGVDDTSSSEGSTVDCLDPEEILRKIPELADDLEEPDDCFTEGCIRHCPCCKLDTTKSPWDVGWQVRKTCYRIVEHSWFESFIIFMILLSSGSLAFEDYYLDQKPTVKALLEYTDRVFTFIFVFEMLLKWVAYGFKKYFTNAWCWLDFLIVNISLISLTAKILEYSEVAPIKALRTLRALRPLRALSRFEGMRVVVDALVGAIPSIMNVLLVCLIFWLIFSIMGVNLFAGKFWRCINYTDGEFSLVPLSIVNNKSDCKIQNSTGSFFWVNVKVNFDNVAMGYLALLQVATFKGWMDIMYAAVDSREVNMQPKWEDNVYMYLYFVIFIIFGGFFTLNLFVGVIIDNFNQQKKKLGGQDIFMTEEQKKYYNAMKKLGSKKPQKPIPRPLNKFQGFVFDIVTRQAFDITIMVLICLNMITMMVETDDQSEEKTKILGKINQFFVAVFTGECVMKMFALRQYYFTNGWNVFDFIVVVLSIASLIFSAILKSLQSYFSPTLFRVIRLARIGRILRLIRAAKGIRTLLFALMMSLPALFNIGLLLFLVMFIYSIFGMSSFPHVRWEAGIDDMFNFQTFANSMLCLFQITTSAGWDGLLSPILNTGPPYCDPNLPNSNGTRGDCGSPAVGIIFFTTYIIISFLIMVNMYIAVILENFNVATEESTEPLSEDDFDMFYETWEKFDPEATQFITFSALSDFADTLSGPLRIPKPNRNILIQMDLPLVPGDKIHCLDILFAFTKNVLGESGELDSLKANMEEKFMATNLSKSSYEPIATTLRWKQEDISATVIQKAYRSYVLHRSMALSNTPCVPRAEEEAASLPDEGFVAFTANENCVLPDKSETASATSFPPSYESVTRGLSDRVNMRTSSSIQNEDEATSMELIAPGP

The first assay has as its target human Nav 1.8 (Homo sapiens, UniProt Q9Y5Y9). In words: E-VIPR assay detecting and measuring Nav inhibition (HEK cells expressing truncated human Nav 1.8). Type of assay: cell-based. The following applies: in the Absence of Human Serum in the E-VIPR Assay; read-out: IC50. The procedure, abridged:
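HEK cells expressing truncated human Nav1.8, transduced with KIR2.1 BacMam, were loaded with CC2-DMPE/DiSBAC6(3) FRET dyes and tested under electrical stimulation (E-VIPR). Compounds were run as 11-point 3-fold dilutions, top 300 nM final, 0.625% DMSO, with or without 25% human serum.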
For the compound `COc1c([C@H]2[C@H](C(=O)Nc3cc(F)nc(C(N)=O)c3)O[C@@](C)(C(F)(F)F)[C@H]2C)ccc(F)c1F` [Compound 127, 4-[[(2R,3S,4S,5R)-3-(3,4-difluoro-2-methoxy-phenyl)-4,5-dimcthyl-5-(trifluoromethyl)tetrahydrofuran-2-carbonyl]amino]-6-fluoro-pyridine-2-carboxamide], the 50% inhibitory concentration (IC50) was under 10 nM.

For the compound `Cc1c([C@@H]2[C@@H](C)[C@@](C)(C(F)(F)F)O[C@H]2C(=O)Nc2ccnc(C(N)=O)c2)ccc(F)c1F` (stereo in doubt) [Compound 133, rel-(2R,3S,4R,5S)-4-[[3-(3,4-difluoro-2-methyl-phenyl)-4,5-dimethyl-5-(trifluoromethyl)tetrahydrofuran-2-carbonyl]amino]pyridine-2-carboxamide], the IC50 was 10 to 100 nM.

Take `COc1c([C@@H]2[C@@H](C(=O)Nc3ccnc(C(N)=O)c3)O[C@](C)(C(F)(F)F)[C@@H]2C)ccc(C(F)F)c1F` (single isomer, unassigned) [Compound 135]: the half-inhibitory concentration (IC50) was over 1000 nM.

`Cc1c([C@@H]2[C@@H](C(=O)Nc3ccnc(C(N)=O)c3)O[C@@](C)(C(F)(F)F)[C@H]2C)ccc(F)c1F` (stereo in doubt) [Compound 134, rel-(2S,3R,4S,5R)-4-[[3-(3,4-difluoro-2-methyl-phenyl)-4,5-dimethyl-5-(trifluoromethyl)tetrahydrofuran-2-carbonyl]amino]pyridine-2-carboxamide]: the half-maximal inhibitory concentration (IC50) was in the range of 100 to 1000 nM.

Take `COc1c([C@H]2[C@H](C(=O)Nc3cc(C(N)=O)ncn3)O[C@@](C)(C(F)(F)F)[C@H]2C)ccc(F)c1F` [Compound 121, 6-[[(2R,3S,4S,5R)-3-(3,4-difluoro-2-methoxy-phenyl)-4,5-dimethyl-5-(trifluoromethyl)tetrahydrofuran-2-carbonyl]amino]pyrimidine-4-carboxamide]: the IC50 was under 10 nM.

As to `COc1c([C@H]2[C@H](C(=O)Nc3ccnc(C(N)=O)c3)O[C@@](C)(C(F)(F)F)[C@H]2C)cccc1C(F)(F)F` (single isomer, unassigned) [compound 42], the 50% inhibitory concentration (IC50) is under 10 nM.

Still in this assay, the particulars now being: in the Presence of Human Serum in the E-VIPR Assay; read-out: IC50.
Regarding `COc1c([C@H]2C[C@](C)(C(F)(F)F)O[C@@H]2C(=O)Nc2ccnc(C(N)=O)c2)ccc(F)c1Cl` [Compound 21, (2S,3R,5R)-4-[[3-(3-chloro-4-fluoro-2-methoxy-phenyl)-5-methyl-5-(trifluoromethyl)tetrahydrofuran-2-carbonyl]amino]pyridine-2-carboxamide], the IC50 is over 1000 nM.

Take `CNC(=O)c1cc(NC(=O)[C@@H]2O[C@](C)(C(F)(F)F)[C@@H](C)[C@H]2c2ccc(F)c(F)c2OC(F)F)ccn1` (stereo in doubt) [Compound 12, rel-(2R,3S,4S,5S)-4-[[3-[2-(difluoromethoxy)-3,4-difluoro-phenyl]-4,5-dimethyl-5-(trifluoromethyl)tetrahydrofuran-2-carbonyl]amino]-N-methyl-pyridine-2-carboxamide]: the IC50 is over 1000 nM.

For `C[C@H]1[C@@H](c2ccc(F)cc2OC(F)F)[C@H](C(=O)Nc2ccc(F)c(C(N)=O)c2)O[C@@]1(C)C(F)(F)F` (single isomer, unassigned) [Compound 32], the IC50 was under 10 nM.

For `CNC(=O)c1cc(NC(=O)[C@H]2O[C@](C)(C(F)(F)F)[C@H](C)[C@@H]2c2ccc(F)cc2OC(F)F)ccn1` (single isomer, unassigned) [Compound 29], the IC50 was over 1000 nM.

For the compound `COc1cc(F)ccc1[C@@H]1[C@@H](C(=O)Nc2ccnc(C(N)=O)c2)O[C@@](C)(C(F)(F)F)[C@H]1C` (single isomer, unassigned) [Compound 37], the IC50 was in the range of 100 to 1000 nM.

For `C[C@H]1[C@@H](c2ccc(F)c(F)c2O)[C@H](C(=O)Nc2cc[n+]([O-])c(C(N)=O)c2)O[C@@]1(C)C(F)(F)F` [Compound 57, 4-[[(2R,3S,4S,5R)-3-(3,4-difluoro-2-hydroxy-phenyl)-4,5-dimethyl-5-(trifluoromethyl)tetrahydrofuran-2-carbonyl]amino]-1-oxido-pyridin-1-ium-2-carboxamide], the half-maximal inhibitory concentration (IC50) was over 1000 nM.

In the case of `COc1c([C@H]2C[C@@H](C(C)(C)C)O[C@@H]2C(=O)Nc2ccnc(C(N)=O)c2)ccc(F)c1F` (single isomer, unassigned) [Compound 65], the half-maximal inhibitory concentration (IC50) is over 1000 nM.

On to `COc1c([C@@H]2C[C@](C)(CC(F)(F)F)O[C@H]2C(=O)Nc2ccnc(C(N)=O)c2)ccc(F)c1F` (single isomer, unassigned) [Compound 81], for which the half-inhibitory concentration (IC50) lay within 100 to 1000 nM.

With `COc1c([C@@H]2C[C@H](C(F)(F)F)O[C@H]2C(=O)Nc2ccnc(C(N)=O)c2)ccc(F)c1F` (stereo in doubt) [Compound 110, rel-(2R,3S,5R)-4-[[3-(3,4-difluoro-2-methoxy-phenyl)-5-(trifluoromethyl)tetrahydrofuran-2-carbonyl]amino]pyridine-2-carboxamide], the IC50 was in the range of 100 to 1000 nM.

In the case of `COc1c([C@@H]2[C@@H](C(=O)Nc3ccnc(C(N)=O)c3)O[C@](C)(C(F)(F)F)[C@@H]2C)ccc(F)c1C(F)F` (single isomer, unassigned) [Compound 45], the IC50 is 10 to 100 nM.

Take `C[C@@H]1[C@H](c2ccc(F)c(F)c2OC(F)F)[C@@H](C(=O)Nc2ccnc(C(N)=O)c2)O[C@]1(C)C(F)(F)F` [Compound 10, (2S,3R,4R,5S)-4-[[3-[2-(difluoromethoxy)-3,4-difluoro-phenyl]-4,5-dimethyl-5-(trifluoromethyl)tetrahydrofuran-2-carbonyl]amino]pyridine-2-carboxamide]: the IC50 was over 1000 nM.

Consider `COc1c([C@H]2[C@H](C(=O)Nc3ccnc(C(N)=O)c3)O[C@@](C)(C(F)(F)F)[C@H]2C2CC2)ccc(F)c1F` (single isomer, unassigned) [Compound 95], for which the 50% inhibitory concentration (IC50) is over 1000 nM.

Regarding `C[C@H]1[C@@H](c2ccc(F)c(F)c2OC(F)F)[C@H](C(=O)Nc2cccc(C(N)=O)c2)O[C@@]1(C)C(F)(F)F` (single isomer, unassigned) [compound 52], the half-inhibitory concentration (IC50) was under 10 nM.

As for `Cc1c(F)ccc([C@H]2[C@H](C(=O)Nc3ccnc(C(N)=O)c3)O[C@@](C)(C(F)(F)F)[C@H]2C)c1OC(F)F` (stereo in doubt) [Compound 16, rel-(2R,3S,4S,5R)-4-[[3-[2-(difluoromethoxy)-4-fluoro-3-methyl-phenyl]-4,5-dimethyl-5-(trifluoromethyl)tetrahydrofuran-2-carbonyl]amino]pyridine-2-carboxamide], the IC50 is over 1000 nM.

Take `C[C@H]1[C@@H](c2ccc(F)c(F)c2OC(F)F)[C@H](C(=O)Nc2ccc(F)c(C(N)=O)c2)O[C@@]1(C)C(F)(F)F` (single isomer, unassigned) [Compound 15]: the half-inhibitory concentration (IC50) was under 10 nM.

As to `COc1c([C@H]2C[C@@](C)(CC(F)(F)F)O[C@@H]2C(=O)Nc2ccnc(C(N)=O)c2)ccc(F)c1F` (single isomer, unassigned) [Compound 82], the concentration for half-maximal inhibition (IC50) was over 1000 nM.

Take `COc1c([C@@H]2[C@@H](C(=O)Nc3ccnc(C(N)=O)c3)OC(C)(C)[C@H]2C)ccc(F)c1F` (single isomer, unassigned) [Compound 104]: the half-maximal inhibitory concentration (IC50) is over 1000 nM.

Regarding `CCc1c(F)ccc([C@@H]2C[C@](C)(C(F)(F)F)O[C@H]2C(=O)Nc2ccnc(C(N)=O)c2)c1OC` (single isomer, unassigned) [Compound 78], the half-inhibitory concentration (IC50) fell in the range of 10 to 100 nM.

On to `C[C@H]1[C@@H](c2ccc(F)c(F)c2)[C@H](C(=O)Nc2ccnc(C(N)=O)c2)O[C@@]1(C)C(F)(F)F` (single isomer, unassigned) [Compound 91], for which the half-inhibitory concentration (IC50) is 100 to 1000 nM.

As to `Cc1c(F)ccc([C@H]2C[C@@](C)(C(F)(F)F)O[C@@H]2C(=O)Nc2ccnc(C(N)=O)c2)c1F` (single isomer, unassigned) [Compound 75], the half-maximal inhibitory concentration (IC50) was over 1000 nM.

As to `CNC(=O)c1cc(NC(=O)[C@H]2O[C@](C)(C(F)(F)F)C[C@@H]2c2ccc(F)c(Cl)c2OC)ccn1` (single isomer, unassigned) [Compound 58], the half-inhibitory concentration (IC50) was over 1000 nM.

On to `COc1c([C@H]2C[C@](C)(CC(F)(F)F)O[C@@H]2C(=O)Nc2ccnc(C(N)=O)c2)ccc(F)c1F` (single isomer, unassigned) [Compound 83], for which the 50% inhibitory concentration (IC50) is 100 to 1000 nM.

Take `C[C@H]1[C@@H](c2ccc(F)cc2OC(F)F)[C@H](C(=O)Nc2ccnc(C(N)=O)c2)O[C@@]1(C)C(F)(F)F` (stereo in doubt) [Compound 2, rel-(2R,3S,4S,5R)-4-[[3-[2-(difluoromethoxy)-4-fluoro-phenyl]-4,5-dimethyl-5-(trifluoromethyl)tetrahydrofuran-2-carbonyl]amino]pyridine-2-carboxamide]: the IC50 fell in the range of 100 to 1000 nM.

For the compound `COc1c([C@H]2C[C@@H](C(F)(F)F)O[C@@H]2C(=O)Nc2ccnc(C(N)=O)c2)ccc(F)c1C` (single isomer, unassigned) [Compound 111], the IC50 is over 1000 nM.

As for `CC[C@@H]1[C@H](c2ccc(F)c(F)c2OC)[C@@H](C(=O)Nc2ccnc(C(N)=O)c2)O[C@]1(C)C(F)(F)F` (single isomer, unassigned) [Compound 92], the half-inhibitory concentration (IC50) was over 1000 nM.

Consider `Cc1cnc(C(N)=O)cc1NC(=O)[C@H]1O[C@](C)(C(F)(F)F)[C@H](C)[C@@H]1c1ccc(F)c(F)c1OC(F)F` (stereo in doubt) [Compound 151, rel-(2S,3R,4R,5S)-4-[[3-[2-(difluoromethoxy)-3,4-difluoro-phenyl]-4,5-dimethyl-5-(trifluoromethyl)tetrahydrofuran-2-carbonyl]amino]-5-methyl-pyridine-2-carboxamide], for which the IC50 lay within 10 to 100 nM.

In the case of `C[C@H]1[C@@H](c2ccc(F)c(F)c2OC(F)F)[C@H](C(=O)Nc2ccnc(C(N)=O)c2)O[C@@]1(C)C(F)(F)F` (racemic) [Compound 115, rac-(2R,3S,4S,5R)-4-[[3-[2-(difluoromethoxy)-3,4-difluoro-phenyl]-4,5-dimethyl-5-(trifluoromethyl)tetrahydrofuran-2-carbonyl]amino]pyridine-2-carboxamide], the IC50 was under 10 nM.

Broadly, the IC50 is the concentration needed to halve the response being measured.
